From US20250289789A1, “REVERSIBLE LYSINE COVALENT MODIFIERS OF CDK2 AND USES THEREOF” (Terremoto Biosciences, Inc., priority 2023, published 2025)
pIC50: −log10 of the molar value. ≈ marks a conversion by molar mass, not a printed value. Where “and” joins values, the source holds several entries; their conditions need not be identical. Identical values can stand only once. Entries after “also recorded” stand apart in the source; their conditions may differ. Like-named read-outs stand apart in the source and are kept apart here.

How the values were obtained:
[1] = Solubility determination in PBS pH 7.4; assay type: physicochemical; conditions: aqueous buffer, kinetic from dmso stock; PBS pH 7.4, 2 hours, 25° C.; the listed prodrug
Protocol: Stock solutions (10 mM DMSO, 30 μL) of each sample were placed into 96-well plate, along with 970 μL of PBS pH 7.4 were added into each vial of the cap-less solubility sample plate. The assay was performed in duplicate. A stir stick was added to each well and sealed using a molded PTFE/Silicone plug. Then the Solubility Sample plate was transferred to an Eppendorf Thermomixer Comfort plate shaker and shaken at 1100 RPM for 2 hours at 25° C. After completion the plugs and stir sticks were removed and the samples were transferred into a filter plate and filtered using a vacuum manifold. 5 μL aliquots of filtrate were taken and diluted with 5 μL DMSO and 490 μL of a 1:1 v/v mixture of H2O and acetonitrile. 200 μL of diluent was transferred to a new 96-well plate for LC-MS/MS analysis. The solution was analyzed and quantified against a standard of known concentration in DMSO using LC coupled with Mass spectral peak for identification and quantitation.

[2] = test system: Phospho-Rb Ser807/811 in OVCAR3 cells; experiment: OVCAR3 Phospho-Rb Ser807/811 HTRF assay; assay type: cell-based; conditions: Homo sapiens, OVCAR-3, 1 h, read-out: pRb-OVCAR3 IC50
Protocol: Cells were trypsinized and resuspended in 1 mM hydroxyurea (Sigma; H8627), 90% RPMI and 10% fetal bovine serum. […] Dose response curve normalized to DMSO control was plotted using four-parameter logistic model for IC50 calculation.

[3] = target: T1, CDK4-NanoLuc fusion with CCND1 in 293T or 293 cells (Homo sapiens, UniProt P11802); experiment: NanoBRET Target Engagement (TE) Intracellular Kinase Assay, CDK4/CCND1; assay type: cell-based; conditions: NanoBRET TE intracellular kinase assay, 2-hour incubation, read-out: NanoBRET-CDK4/D1 IC50
T1 construct: host or cells: 293T (ATCC CRL-3216) or 293 (ATCC CRL-1573)

pCDK2-CCNE1 proteins = pCDK2-CCNE1 proteins (Homo sapiens, UniProt P24941); experiment: Identification of covalent binding by intact mass spectrometry, with and without competitor PF-06873600; conditions: for Observed mass value of the covalent complex between compound and CDK2 protein: intact mass spectrometry after borohydride reduction, unmodified CDK2 34096-34097 Da; for Covalent complex formation with CDK2 protein (intact mass spectra after sodium borohydride reduction) / Binding pocket by competition: complex formation in presence of molar excess PF-06873600: pCDK2-CCNE1 1 μM, compound 1.5 μM; for Covalent complex formation with CDK2 protein (intact mass spectra after sodium borohydride reduction): 1 hour at room temperature or 37° C., no competitor; for Binding pocket by competition: complex formation in presence of molar excess PF-06873600: competitor PF-06873600 20 μM
Protocol: pCDK2-CCNE1 proteins (1 μM) were treated with a compound (1.5 μM) from Table 4 for 1 hour at room temperature or 37° C., with and without competitor molecule PF-06873600 (20 μM final concentration) as a specificity control. As used herein, the competitor molecule is
As used herein, the competitor molecule is 6-(difluoromethyl)-8-((1R,2R)-2-hydroxy-2-methylcyclopentyl)-2-((1-(methylsulfonyl)piperidin-4-yl)amino)pyrido[2,3-d]pyrimidin-7(8H)-one (PF-06873600). Reversible imines were captured by reductive amination with the addition of 5 mM sodium borohydride at room temperature for 5 min. Reduction reactions were quenched by diluting the sample in equal volume of 1% trifluoroacetic acid (v/v) in acetonitrile, then analyzed by LC-MS. Deconvoluted monoisotopic intensities of unmodified and compound-modified mass peaks were compared.
FIGS. 1A to 1P provide intact mass spectra for pCDK2-CCNE1 proteins after incubation with compounds of the present disclosure and subsequent sodium borohydride reduction. […] Further, FIGS. 1A to 1P each provide intact mass spectra following the incubation of pCDK2-CCNE1 proteins with a compound of the present disclosure both in the absence of a competitor molecule (i.e., PF-06873600, a molecule known to bind to and inhibit the function of CDK2); and in the presence of a significant stoichiometric excess of a competitor molecule PF-06873600.
FIGS. 2A to 2N provide intact mass spectra for pCDK2-CCNE1 proteins after incubation with compounds of the present disclosure and subsequent sodium borohydride reduction.

[4] = target: T2, CDK1-NanoLuc fusion with CCNB1 in 293T or 293 cells (Homo sapiens, UniProt P06493); experiment: NanoBRET Target Engagement (TE) Intracellular Kinase Assay, CDK1/CCNB1; assay type: cell-based; conditions: NanoBRET TE intracellular kinase assay, 2-hour incubation, read-out: NanoBRET-CDK1/B1 IC50
T2 construct: host or cells: 293T (ATCC CRL-3216) or 293 (ATCC CRL-1573)
Procedure, shortened: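 IC50 derived by four-parameter logistic fit of DMSO-normalized acceptor/donor (610/450 nm) BRET ratio. Compound and Tracer K-10 were applied together for 2 h at 37° C to 293 or 293T cells transfected 24 h earlier with CDK1-NanoLuc fusion and cyclin B1.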

[5] = target: T3, CDK2-NanoLuc fusion with CCNE1 in 293T or 293 cells (Homo sapiens, UniProt P24941); experiment: NanoBRET Target Engagement (TE) Intracellular Kinase Assay, CDK2/CCNE1; assay type: cell-based; conditions: 2-hour incubation
T3 construct: host or cells: 293T (ATCC CRL-3216) or 293 (ATCC CRL-1573)

[6] = OVCAR3 cells, Phospho-Rb Ser807/811 HTRF, 1 hour incubation
[7] = NanoBRET TE intracellular kinase assay, read-out: NanoBRET-CDK2/E1 IC50

T2 sequence (P06493 whole entry, the tested form may be a part): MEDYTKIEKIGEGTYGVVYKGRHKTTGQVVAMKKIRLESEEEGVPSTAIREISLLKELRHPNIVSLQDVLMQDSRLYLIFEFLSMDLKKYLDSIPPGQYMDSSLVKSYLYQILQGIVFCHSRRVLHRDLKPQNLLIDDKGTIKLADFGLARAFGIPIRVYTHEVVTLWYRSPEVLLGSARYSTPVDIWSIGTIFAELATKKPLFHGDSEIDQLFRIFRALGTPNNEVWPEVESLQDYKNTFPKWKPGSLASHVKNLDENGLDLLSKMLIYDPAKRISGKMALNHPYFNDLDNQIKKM
T2 sequence (P14635 whole entry partner, the tested form may be a part): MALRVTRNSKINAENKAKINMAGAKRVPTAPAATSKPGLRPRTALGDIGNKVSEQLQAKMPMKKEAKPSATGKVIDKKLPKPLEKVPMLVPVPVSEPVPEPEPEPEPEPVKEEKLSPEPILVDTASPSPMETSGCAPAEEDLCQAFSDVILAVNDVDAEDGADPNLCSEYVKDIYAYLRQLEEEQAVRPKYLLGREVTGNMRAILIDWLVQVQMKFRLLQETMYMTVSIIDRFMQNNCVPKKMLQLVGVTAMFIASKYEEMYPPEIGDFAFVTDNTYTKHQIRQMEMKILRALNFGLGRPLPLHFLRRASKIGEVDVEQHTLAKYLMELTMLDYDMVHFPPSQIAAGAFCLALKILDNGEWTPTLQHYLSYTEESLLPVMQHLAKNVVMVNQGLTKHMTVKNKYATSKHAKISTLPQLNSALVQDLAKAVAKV
T1 sequence (P11802 whole entry, the tested form may be a part): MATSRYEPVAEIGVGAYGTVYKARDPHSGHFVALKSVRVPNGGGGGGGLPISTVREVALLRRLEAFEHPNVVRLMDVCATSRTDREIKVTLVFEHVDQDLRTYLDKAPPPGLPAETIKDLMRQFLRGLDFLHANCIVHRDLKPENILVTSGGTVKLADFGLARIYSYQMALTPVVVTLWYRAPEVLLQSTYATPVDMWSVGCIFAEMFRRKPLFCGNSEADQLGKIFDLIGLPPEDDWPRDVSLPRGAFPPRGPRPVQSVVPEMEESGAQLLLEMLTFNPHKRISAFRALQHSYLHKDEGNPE
T1 sequence (P24385 whole entry partner, the tested form may be a part): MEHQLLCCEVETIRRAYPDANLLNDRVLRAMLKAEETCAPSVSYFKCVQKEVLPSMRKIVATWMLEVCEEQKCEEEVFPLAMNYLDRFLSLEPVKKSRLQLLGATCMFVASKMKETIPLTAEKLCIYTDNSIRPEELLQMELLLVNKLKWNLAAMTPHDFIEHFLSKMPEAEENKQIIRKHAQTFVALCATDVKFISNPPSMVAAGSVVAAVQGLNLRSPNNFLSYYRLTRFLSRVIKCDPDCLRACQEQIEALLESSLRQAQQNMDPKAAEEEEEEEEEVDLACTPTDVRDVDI

SMILES | solubility at 2 h [1] | pIC50 [3] | Observed mass value of the covalent complex between compound and CDK2 protein (pCDK2-CCNE1 proteins) | pIC50 [4] | pIC50 [2, 6] | pIC50 [5, 7] | Observed mass value of the covalent complex between compound and CDK2 protein (pCDK2-CCNE1 proteins; 2,2,2-trifluoroacetate) | pIC50 [2] | Covalent complex formation with CDK2 protein (intact mass spectra after sodium borohydride reduction) (pCDK2-CCNE1 proteins; trifluoroacetic acid) | Binding pocket by competition: complex formation in presence of molar excess PF-06873600 (pCDK2-CCNE1 proteins) | pIC50 ([5]; NanoBRET-CDK2/E1 IC50, NanoBRET TE intracellular kinase assay) | Covalent complex formation with CDK2 protein (intact mass spectra after sodium borohydride reduction) (pCDK2-CCNE1 proteins)
CC(C)/N=C/c1c(O)cccc1OCC(=O)Nc1cc([C@H]2CC[C@@H](OC(=O)NC3(C)CC3)C2)[nH]n1 [Compound 82a, (1R,3S)-3-(3-(2-(3-hydroxy-2-((E)-(isopropylimino)methyl)phenoxy)acetamido)-1H-pyrazol-5-yl)cyclopentyl (1-methylcyclopropyl)carbamate] | 34 µM (≈ 16.4 µg/mL) |  |  |  |  |  |  |  |  |  |  | 
CCCC/N=C/c1c(O)cc(OC)cc1OCC(=O)Nc1cc([C@H]2CC[C@@H](OC(=O)NC(C)C)C2)[nH]n1 [Compound 64d, (1R,3S)-3-(3-(2-(2-((E)-(butylimino)methyl)-3-hydroxy-5-methoxyphenoxy)acetamido)-1H-pyrazol-5-yl)cyclopentyl isopropylcarbamate] | 67 µM (≈ 34.5 µg/mL) |  |  |  |  |  |  |  |  |  |  | 
CC(C)NC(=O)O[C@@H]1CC[C@H](c2cc(NC(=O)c3ccnc(Oc4cccc(O)c4C=O)c3)n[nH]2)C1 [Compound 69, (1R,3S)-3-{5-[2-(2-formyl-3-hydroxyphenoxy)pyridine-4-amido]-2H-pyrazol-3-yl}cyclopentyl N-isopropylcarbamate; trifluoroacetic acid] |  | 5.71 | 34574 Da | 7.10 |  |  |  | 6.14 | formed a covalent complex with CDK2 protein; also recorded: resulted in covalent complex formation | bound to the same binding pocket of CDK2 as the competitor molecule PF-06873600 | 8.72 | 
CC(C)NC(=O)O[C@@H]1CC[C@H](c2cc(Nc3cc(Oc4cccc(O)c4C=O)ccn3)n[nH]2)C1 [Compound 13, (1R,3S)-3-(5-{[4-(2-formyl-3-hydroxyphenoxy)pyridin-2-yl]amino}-2H-pyrazol-3-yl)cyclopentyl N-isopropylcarbamate; trifluoroacetic acid] |  | 5.33 | 34546 Da | 7.03 | 6.15 | 7.91 |  |  |  | bound to the same binding pocket of CDK2 as the competitor molecule PF-06873600 |  | formed a covalent complex with CDK2 protein
COc1cc(O)c(C=O)c(OCC(=O)Nc2cc([C@H]3CC[C@@H](OC(=O)NC(C)C)C3)[nH]n2)c1 [Compound 64, (1R,3S)-3-{5-[2-(2-formyl-3-hydroxy-5-methoxyphenoxy)acetamido]-2H-pyrazol-3-yl}cyclopentyl N-isopropylcarbamate] |  | < 5.19 | 34539 Da | 8.02 | 7.48 | 8.56 |  |  |  |  |  | resulted in covalent complex formation
CC(C)NC(=O)O[C@@H]1CC[C@H](c2cc(NC(=O)[C@@H](C)Oc3cccc(O)c3C=O)n[nH]2)C1 [Compound 32, (1R,3S)-3-{5-[(2R)-2-(2-formyl-3-hydroxyphenoxy)propanamido]-2H-pyrazol-3-yl}cyclopentyl N-isopropylcarbamate] |  | 5.31 | 34525 Da | 7.28 | 6.45 | 8.33 |  |  |  | bound to the same binding pocket of CDK2 as the competitor molecule PF-06873600 |  | formed a covalent complex with CDK2 protein

The remaining compounds from weak to strong by pIC50 [3], led by results:

solubility at 2 h [1] | pIC50 [3] | Observed mass value of the covalent complex between compound and CDK2 protein (pCDK2-CCNE1 proteins) | pIC50 [4] | pIC50 [2, 6] | pIC50 [5, 7] | Observed mass value of the covalent complex between compound and CDK2 protein (pCDK2-CCNE1 proteins; 2,2,2-trifluoroacetate) | SMILES | pIC50 [2] | Covalent complex formation with CDK2 protein (intact mass spectra after sodium borohydride reduction) (pCDK2-CCNE1 proteins; trifluoroacetic acid) | Binding pocket by competition: complex formation in presence of molar excess PF-06873600 (pCDK2-CCNE1 proteins) | pIC50 ([5]; NanoBRET-CDK2/E1 IC50, NanoBRET TE intracellular kinase assay) | Covalent complex formation with CDK2 protein (intact mass spectra after sodium borohydride reduction) (pCDK2-CCNE1 proteins)
 | 5.35 | 34523 Da | 7.95 | 7.36 | 8.48 |  | CC1(NC(=O)O[C@@H]2CC[C@H](c3cc(NC(=O)COc4cccc(O)c4C=O)n[nH]3)C2)CC1 [Compound 82, (1R,3S)-3-{5-[2-(2-formyl-3-hydroxyphenoxy)acetamido]-2H-pyrazol-3-yl}cyclopentyl N-(1-methylcyclopropyl)carbamate; trifluoroacetic acid] |  |  |  |  | resulted in covalent complex formation
 | 5.38 |  | 6.16 | 5.62 | 7.69 |  | CC(=O)Nc1cccc(OCC(=O)Nc2cc([C@H]3CC[C@@H](OC(=O)NC(C)C)C3)[nH]n2)c1C=O [Compound 46, (1R,3S)-3-{5-[2-(3-acetamido-2-formylphenoxy)acetamido]-2H-pyrazol-3-yl}cyclopentyl N-isopropylcarbamate] |  |  |  |  | resulted in covalent complex formation
 | 5.39 | 34519 Da | 6.45 | 5.94 | 8.12 |  | C#Cc1cccc(OCC(=O)Nc2cc([C@H]3CC[C@@H](OC(=O)NC(C)C)C3)[nH]n2)c1C=O [Compound 51, (1R,3S)-3-(3-(2-(3-ethynyl-2-formylphenoxy)acetamido)-1H-pyrazol-5-yl)cyclopentyl isopropylcarbamate] |  |  | bound to the same binding pocket of CDK2 as the competitor molecule PF-06873600 |  | formed a covalent complex with CDK2 protein
 | 5.42 | 34554 Da | 8.25 | 7.50 | 8.84 |  | COc1cc(OC)c(C=O)c(OCC(=O)Nc2cc([C@H]3CC[C@@H](OC(=O)NC(C)C)C3)[nH]n2)c1 [Compound 103, (1R,3S)-3-{5-[2-(2-formyl-3,5-dimethoxyphenoxy)acetamido]-2H-pyrazol-3-yl}cyclopentyl N-isopropylcarbamate] |  |  |  |  | resulted in covalent complex formation
 | 5.43 |  | 7.00 | 6.70 | 8.32 | 34538-34539 Da and 34539 Da | COc1cc(O)c(C=O)c(CCC(=O)Nc2cc([C@H]3CC[C@@H](OC(=O)NC(C)C)C3)[nH]n2)c1 [Compound 22, (1R,3S)-3-(3-(3-(2-formyl-3-hydroxy-5-methoxyphenyl)propanamido)-1H-pyrazol-5-yl)cyclopentyl isopropylcarbamate 2,2,2-trifluoroacetate] |  |  | bound to the same binding pocket of CDK2 as the competitor molecule PF-06873600 |  | formed a covalent complex with CDK2 protein
